Results as given in patent US12268676B2, “Antiviral applications of picolinic acid and its derivatives” (INDIAN INSTITUTE OF SCIENCE, priority 2021, dated 2025).
Like-named read-outs stand apart in the source and are kept apart here.

Columns and labels:
[1] = system: Herpes Simplex virus 1 (HSV1 Luc); experiment: microbe, parasite or virus in culture; type: cell-based; conditions: Human alphaherpesvirus 1, A549, 48 h, read-out: inhibition in reporter virus assay
[2] = system: Japanese Encephalitis Virus (JEV) clinical strain P20778; experiment: JEV infection, western blot of flavivirus envelope protein; type: cell-based; conditions: 2 mM PA
[3] = system: IAV PR8 WT strain; type: in vivo, BALB/c mice
[4] = system: Dengue virus (DENV Luc); experiment: microbe, parasite or virus in culture; type: cell-based; conditions: A549, 48 h, read-out: inhibition (luciferase, normalized with untreated control)
[5] = system: wild type Zika virus (ZIKV) Cambodia strain; experiment: ZIKV infection, western blot of flavivirus envelope protein; type: cell-based; conditions: 2 mM PA, 0.1 MOI, 48 hr post infection (FIG. 7L)
[6] = system: PR8 WT virus; type: in vivo, BALB/c mice; conditions: for reduction of infectious virus titer in lung homogenates (plaque assay): 20 mg/kg PA prophylactically
[7] = system: SARS-CoV-2; experiment: SARS CoV-2 time of addition assay (IFA for spike, western blot); type: cell-based; conditions: for virus replication mitigated (spike positive cells, IFA): 10 MOI
[8] = system: PR8 WT virus; experiment: IAV time of addition assay (IFA for NP, western blot), Example 10; type: cell-based, Influenza A virus; conditions: for inhibition at 2000 µM: Influenza A virus
[9] = system: R18 labelled PR8 WT virus; experiment: Influenza virus membrane fusion assay (R18 fluorescence); type: cell-based, Influenza A virus
[10] = system: Coxsackie virus B3; experiment: Coxsackie virus B3 infection of HeLa cells, western blot for VP1; type: cell-based
Experimental: The effects of PA against non-enveloped viruses were tested to see if PA would be effective against non-enveloped viruses as well. To this end, HeLa cells were either pre-treated for 3 hr with 2 mM PA, infected with 10 MOI Coxsackie virus B3 in presence of PA and collected 3 hr later (−3 hr); or treated during infection (T0); or virus and PA were incubated together for 1 hr and used for infection (1 hr virus+PA).
Coxsackie virus B3 infection: To study early effects of PA, HeLa cells were pre-treated for 3 hr, infected with 10 MOI CVB3, and collected at 3 hr post infection. Alternatively, cells were infected and treated simultaneously (T0) and collected after 3 hr. Also, a mixture of virus and drug incubated for 1 hr (1 hr PA+Virus) was used for infection to test the effects of PA on virus particles. No additional drug was added here post infection. Expression levels of VP1 protein was then detected by western blot analysis.

[11] = system: Rota virus RRV strain; experiment: Rotavirus RRV infection of HEK cells, IFA for VP6; type: cell-based; conditions: HEK cells pre-treated with 2 mM PA, 12 hr
Experimental: Percentage positive cells was quantified using ImageJ/Fiji.
Rotavirus RRV infection: A working concentration of Rota virus was prepared by diluting the virus stock 2-fold with complete DMEM containing a final concentration of 2 μg/mL TPCK trypsin. The mixture was incubated at 37° C. for 30 min and further diluted 2-fold in DMEM without serum. This mixture was then used to infect HEK cells that were pre-treated for 3 hr with 2 mM PA. A volume of 100 μL per well, in a 24 well plate was used for 1 hr adsorption, after which the wells were topped up with 400 μL serum free media containing PA. After 12 hr, cells were fixed with 4% formalin and immunolabeled with primary mouse anti VP6, and anti-mouse secondary Alexa Fluor 488 antibodies to detect virus infected cells by IFA.

[12] = system: AAV6-GFP particles; experiment: AAV6-GFP infection of HEK cells, flow cytometry; type: cell-based, Adeno Associated Virus-6; conditions: 2 mM PA, all virus volumes tested, 48 hr p.i.
[13] = system: Adenovirus 5 expressing eGFP; experiment: Adenovirus 5 eGFP infection of HEK cells, flow cytometry; type: cell-based, Adenovirus Serotype 5; conditions: 2 mM PA, 10 MOI, 24 hr
[14] = system: TM4 mycobacteriophage; experiment: Effect of drug on TM4 mycobacteriophage; type: cell-based; conditions: 10 MOI
Experimental: Since most of the naked viruses tested were not inhibited by PA, whether PA would be effective against TM4 mycobacteriophages. M. smegmatis cells in a 48 well plate were treated with increasing concentrations of PA as indicated and OD600 measurements were taken periodically up to 24 hr. […] For the antiviral assay, 1 mM PA was either added at the start of experiment or 3 hr prior to infection. In either case, there was no protection from TM4 mycobacteriophage induced cell death (FIG. 12, panel G).
Effect of drug on TM4 mycobacteriophage: To study the effect of the drug on TM4 phage growth and activity, 7H9 broth supplemented with ADC and CaCl2 was prepared and inoculated with 100 μL of log-phase secondary bacterial culture (OD 1-2) per 5 mL of the media. 1 mM of the drug was added to culture tubes at the appropriate time (either at the start of the experiment or 3 hr before adding the phage in the mid-log phase). The cultures were then incubated at 37° C. with rotary shaking at 180 pm. For phage-treated samples, a 10 MOI TM4 mycobacteriophage was added at a specified interval of the mid-log phase. […] Readings were taken using a spectrophotometer (Jenway 7205 UV/Visible Spectrophotometer) at 600 nm against a media blank.

[15] = mouse, in vivo
[16] = system: clathrin mediated endocytosis; experiment: Transferrin uptake assay, flow cytometry; conditions: A549, 2 mM PA, 1 hr pulse with 25 μg/mL Tf647

Compound: O=C(O)c1ccccn1 [PA, pyridine-2-carboxylic acid]
- inhibition at 2000 µM [1]: 80 to 90%
- flavivirus envelope protein by western blot ([2]; 0.1 MOI, 48 hr post infection (FIG. 7K)): inhibition
- decrease in the flavivirus envelope protein expression (western blot) ([2]; VeroE6 cells, 48 hr post infection, normalized against actin): 0.75 fold
- decrease in virus titre from lung tissue (plaque assay) compared to untreated ([3]; 20 mg PA, 72 hr post infection): Over 10 fold
- body weight loss after IAV infection ([3]; animals infected in the presence of 100 mg PA): 30%
- body weight loss after IAV infection ([3]; mouse, in vivo): minimal loss in body weight
- decrease in survival rate ([3]; mouse, in vivo): significantly reduced
- inhibition at 2000 µM [4]: > 90%
- flavivirus envelope protein by western blot [5]: inhibition
- reduction of infectious virus titer in lung homogenates (plaque assay) ([6]; IP route): > 10 fold
- reduction of infectious virus titer in lung homogenates (plaque assay) ([6]; oral route): > 10 fold
- survival ([6]; IP prophylactic group, 7 days p.i.): 80%
- bodyweight rescue compared to virus control ([6]; IP prophylactic group, day 7): > 10%
- rescue of total animal body weight ([6]; all groups): Over 90%
- abrogation of lung virus titers, IP vs oral route ([6]; mouse, in vivo): more effective
- clinical scores of histology sections ([6]; mouse, in vivo): recovery
- lung histology analysis ([6]; mouse, in vivo): marked reduction in pathology
- animal survival ([6]; mouse, in vivo, ip): completely rescue
- lung histology analysis ([6]; mouse, in vivo, po): best rescue
- inhibition of virus (IFA, western blot) ([7]; HEK ACE2, PA added 6 hr post infection, collected 3 hr later): ~50%
- inhibition of virus (IFA, western blot) ([7]; HEK ACE2, no pre-treatment, infected in presence of drug (T0)): almost no inhibition
- virus replication mitigated (spike positive cells, IFA) ([7]; HEK ACE2, pre-treated 3 hr with 2 mM PA (-3 hr)): > 80%
- inhibition of virus (IFA, western blot) ([7]; VeroE6, PA added 6 hr post infection, collected 3 hr later): no inhibition
- inhibition of virus (IFA, western blot) ([7]; VeroE6, no pre-treatment, infected in presence of drug (T0)): almost no inhibition
- virus replication mitigated (spike positive cells, IFA) ([7]; VeroE6, pre-treated 3 hr with 2 mM PA (-3 hr)): > 80%
- NP positive cells (IFA) [8]: No differences
- inhibition at 2000 µM ([8]; PR8, 1 h, read-out: inhibition (IFA for nucleoprotein and western blot)): 50%
- inhibition at 2000 µM ([8]; PR8, A549, 3 h, read-out: inhibition (IFA, NP)): 80%
- virus-entry associated increase in fluorescence intensity [9]: able to inhibit
- effect on virus entry (VP1 western blot) ([10]; incubation of virus with drug 1 hr prior to infection): did not have any effects
- effect on virus entry (VP1 western blot) ([10]; pre-treatment 3 hr with 2 mM PA, 10 MOI): did not have any effects
- effect on virus entry (VP1 western blot) ([10]; treatment at the time of infection (T0)): did not have any effects
- effect on virus entry (VP6 positive cells, IFA) [11]: did not have any effects
- decrease in GFP positive cells [12]: 5-10%
- GFP positive cells, treated vs untreated [13]: Almost no differences
- protection from TM4 mycobacteriophage induced cell death ([14]; 1 mM PA added 3 hr prior to infection): no protection
- protection from TM4 mycobacteriophage induced cell death ([14]; 1 mM PA added at the start of experiment): no protection
- toxicity (bodyweight changes over 9 days) [15]: toxic
- body weight vs PBS treated control ([15]; ip): no differences in body weight
- decrease in total body weight ([15]; ip): 10-12%
- cellular uptake of transferrin (Tf647 positive cells) [16]: did not show any differences
